Values quoted from earlier work in patent US20200155510A1, “TREATMENT OF AUTOIMMUNE DISORDERS, SUCH AS RELAPSING REMITTING MULTIPLE SCLEROSIS AND […] SYNDROME WITH BIOTIN COMPOSITIONS” (JDS Therapeutics, LLC, priority 2018, published 2020).

Settings: relative to biotin; background statement, no method given

O=C(O)CCCC[C@@H]1SC[C@@H]2NC(=O)N[C@@H]21 [Magnesium biotinate, Magnesium D-biotinate]
water solubility: more water soluble than biotin
